ChEMBL document CHEMBL1152438, “Design, synthesis, and structure-activity relationships of aminopyridine N-oxides, a novel scaffold for the potent and selective inhibition of p38 mitogen activated protein kinase” (J Med Chem, 2009)
≈ marks a conversion by molar mass, not a printed value.

What was measured:
[1] = Solubility at pH 7.4; format: physicochemical; details: buffer
[2] = Solubility at pH 9.0; format: physicochemical; details: buffer
[3] = Solubility at pH 0.1; format: physicochemical; details: buffer
[4] = Cmax in rat at 10 mg/kg, po; format: ADME, organism-based; set-up: dose 10 mg/kg, route oral; details: in vivo
[5] = Tmax in rat at 10 mg/kg, po; format: ADME, organism-based; set-up: dose 10 mg/kg, route oral; details: in vivo
[6] = AUC (0 to 6 hrs) in rat at 10 mg/kg, po; format: ADME, organism-based; set-up: time < 6 hr, dose 10 mg/kg, route oral; details: plasma
[7] = Oral bioavailability in rat at 10 mg/kg; format: ADME, organism-based; details: in vivo
[8] = Half life in rat at 0.5 mg/kg, iv; format: ADME, organism-based; set-up: dose 0.5 mg/kg, route intravenous; details: in vivo
[9] = Clearance in rat at 0.5 mg/kg, iv; format: ADME, organism-based; set-up: dose 0.5 mg/kg, route intravenous; details: in vivo
[10] = Volume of distribution at steady state in rat at 0.5 mg/kg, iv; format: ADME, organism-based; set-up: dose 0.5 mg/kg, route intravenous; details: in vivo, read-out: Vdss
[11] = Half life in rat at 1 mg/kg, iv; format: ADME, organism-based; set-up: dose 1 mg/kg, route intravenous; details: in vivo
[12] = Clearance in rat at 1 mg/kg, iv; format: ADME, organism-based; set-up: dose 1 mg/kg, route intravenous; details: in vivo
[13] = Volume of distribution at steady state in rat at 1 mg/kg, iv; format: ADME, organism-based; set-up: dose 1 mg/kg, route intravenous; details: in vivo, read-out: Vdss

Compound	solubility [1] [µg/mL]	solubility [2] [µg/mL]	solubility [3] [µg/mL]	other results
Cc1ccccc1-c1c(N)c(C(=O)c2ccc(F)cc2F)cc[n+]1[O-]	63 (≈ 185 µM)	74 (≈ 217 µM)	110 (≈ 323 µM)	Cmax [4]: 4.7 µM; Tmax [5]: 0.75 h; AUC(0-t) at 6 h [6]: 22.2 µM·h; bioavailability [7]: 75%; half-life [8]: 1.6 h; clearance [9]: 16.7 mL/min/kg; Vd [10]: 2.3 L/kg
Cc1cc(O)ccc1-c1c(N)c(C(=O)c2ccc(F)cc2F)cc[n+]1[O-]	37 (≈ 104 µM)	–	44 (≈ 123 µM)	–
Nc1c(C(=O)c2ccc(F)cc2F)cc[n+]([O-])c1-c1ccccc1Cl	59 (≈ 164 µM)	39 (≈ 108 µM)	66 (≈ 183 µM)	Cmax [4]: 11.9 µM; Tmax [5]: 3.5 h; AUC(0-t) at 6 h [6]: 54.4 µM·h; half-life [11]: 14.8 h; clearance [12]: 1.7 mL/min/kg; Vd [13]: 1.8 L/kg; bioavailability [7]: 23%
Cc1cc(OCCN2CCOCC2)ccc1-c1c(N)c(C(=O)c2ccc(F)cc2F)cc[n+]1[O-]	51 (≈ 109 µM)	–	> 1000	–

The next lines start with results.

solubility [1] [µg/mL]	solubility [2] [µg/mL]	solubility [3] [µg/mL]	Compound	other results
4 (≈ 11 µM)	2 (≈ 5.52 µM)	–	Nc1c(C(=O)c2ccc(F)cc2F)cc[n+]([O-])c1-c1c(F)cccc1F	–
67 (≈ 162 µM)	89 (≈ 215 µM)	24 (≈ 57.9 µM)	COCCOc1ccc(-c2c(N)c(C(=O)c3ccc(F)cc3F)cc[n+]2[O-])c(C)c1	–
69 (≈ 195 µM)	70 (≈ 198 µM)	40 (≈ 113 µM)	Cc1cccc(C)c1-c1c(N)c(C(=O)c2ccc(F)cc2F)cc[n+]1[O-]	–
> 1000	> 1000	41 (≈ 107 µM)	Cc1cc(C(=O)O)ccc1-c1c(N)c(C(=O)c2ccc(F)cc2F)cc[n+]1[O-]	–
46 (≈ 104 µM)	49 (≈ 111 µM)	54 (≈ 122 µM)	COCCNC(=O)c1ccc(-c2c(N)c(C(=O)c3ccc(F)cc3F)cc[n+]2[O-])c(C)c1	–
